pEC50: −log10 of the molar value.

This passage reports EC50 results from BindingDB's records for doi:10.1016/j.bmcl.2020.127000 (Ajinomoto, 2020).

The assay can be described thus: Positive allosteric modulation of human TIR2/TIR3 expressed in PEAKrapid cells assessed as potentiation of sucrose-induced intracellular calcium influx by measuring sucrose EC50 at 30 uM measured for 120 secs by fluorescence based assay. Background: Calcium flux is commonly read through the fluorescence of an indicator in the cells.
Regarding `CC(C)(CC(=O)Nc1cncc(C(=O)O)c1N)NC(=O)[C@@H](N)C1CCCCC1`, the pEC50 (as a rule, the EC50 on a negative log10 scale, so that one unit is a factor of ten) is 2.59.

For `CC(C)[C@H](N)C(=O)NC(C)(C)CC(=O)Nc1cncc(C(=O)O)c1N`, the pEC50 was 2.03. Regarding `CC(C)C[C@H](N)C(=O)NC(C)(C)CC(=O)Nc1cncc(C(=O)O)c1N`, the pEC50 is 2.24. The same measure for `CC(C)(CC(=O)Nc1cncc(C(=O)O)c1N)NC(=O)[C@H](N)C1CCCCC1`: 2.11; for `CC(C)(CC(=O)Nc1cncc(C(=O)O)c1N)NC(=O)[C@@H](N)c1ccccc1`: 2.02; for `CC(C)(CC(=O)Nc1cncc(C(=O)O)c1N)NC(=O)C1(N)CCCCC1`: 2.12. The same measure for `CC(C)(CC(=O)Nc1cncc(C(=O)O)c1N)NC(=O)[C@@H](N)CC1CCCCC1`: 2.14.

For the compound `CC(C)(CC(=O)Nc1cncc(C(=O)O)c1N)NC(=O)CC[C@@H](N)Cc1ccccc1`, the pEC50 is 2.06.

Consider `CC(C)(CC(=O)Nc1cncc(C(=O)O)c1N)NC(=O)CC1(CN)CCCCC1`, for which the pEC50 is 2.37. As for `CC(C)(CC(=O)Nc1cncc(C(=O)O)c1N)NC(=O)c1cccc(N)c1`, the pEC50 is 1.97. In the case of `CC(C)(CC(=O)Nc1cncc(C(=O)O)c1N)NC(=O)c1ccc(N)cc1`, the pEC50 is 2.05. The result for `CC(C)(CC(=O)Nc1cncc(C(=O)O)c1N)NC(=O)[C@@H]1CCC[C@H](N)C1` reads 2.01; that for `CC(C)(CC(=O)Nc1cncc(C(=O)O)c1N)NC(=O)[C@H]1CC[C@H](N)CC1`, 2.11. As for `CC(C)(CC(=O)Nc1cncc(C(=O)O)c1N)NC(=O)[C@H]1CC[C@@H](N)CC1`, the negative logarithm of the EC50 (pEC50) was 2.14. As for `CC(C)(CC(=O)Nc1cncc(C(=O)O)c1N)NC(=O)C1CCNC1` (centres undefined), the pEC50 is 2.10. The same measure for `CC(C)(CC(=O)Nc1cncc(C(=O)O)c1N)NC(=O)C[C@H]1CCNC1`: 2.12; for `CC(C)(CC(=O)Nc1cncc(C(=O)O)c1N)NC(=O)C[C@@H]1CCNC1`: 2.13; for `CC(C)(CC(=O)Nc1cncc(C(=O)O)c1N)NC(=O)C1CCNCC1`: 1.84. The result for `CC(C)(CC(=O)Nc1cncc(C(=O)O)c1N)NC(=O)c1ccccc1` reads 1.95. The result for `CC(C)(CC(=O)Nc1cncc(C(=O)O)c1N)NC(=O)c1cccc2c1CCCC2` reads 2.05; that for `CC(C)(CC(=O)Nc1cncc(C(=O)O)c1N)NC(=O)C1(c2ccccc2)CC1`, 2.08. As for `CC(C)(CC(=O)Nc1cncc(C(=O)O)c1N)NC(=O)CC1CCCCC1`, the pEC50 is 2.27. Regarding `CC(C)(CC(=O)Nc1cncc(C(=O)O)c1N)NC(=O)CCC1CCCCC1`, the pEC50 was 1.96. In the case of `CC(C)(CC(=O)Nc1cncc(C(=O)O)c1N)NC(=O)C1CCCCC1`, the pEC50 was 2.21.

On to `CC(C)(CC(=O)Nc1cncc(C(=O)O)c1N)NC(=O)CC1CCCC1`, for which the negative-log EC50 (pEC50) was 2.29. The same measure for `CC(C)C(=O)NC(C)(C)CC(=O)Nc1cncc(C(=O)O)c1N`: 2.10.

Take `CC(C)(CC(=O)Nc1cncc(C(=O)O)c1N)NC(=O)C(C)(C)C`: the pEC50 was 2.03.

Turning to `CC(C)CC(=O)NC(C)(C)CC(=O)Nc1cncc(C(=O)O)c1N`, the negative-log EC50 (pEC50) was 2.14. The same measure for `CC(C)(C)CC(=O)NC(C)(C)CC(=O)Nc1cncc(C(=O)O)c1N`: 2.09; for `CCCCCC(=O)NC(C)(C)CC(=O)Nc1cncc(C(=O)O)c1N`: 2.18; for `CCCCCCC(=O)NC(C)(C)CC(=O)Nc1cncc(C(=O)O)c1N`: 2.11. The same measure for `CCCCCCCC(=O)NC(C)(C)CC(=O)Nc1cncc(C(=O)O)c1N`: 1.99.

As for `CCCCCCCCCCCC(=O)NC(C)(C)CC(=O)Nc1cncc(C(=O)O)c1N`, the pEC50 was 1.93.

For the compound `CCCCCCCC/C=C\CCCCCCCC(=O)NC(C)(C)CC(=O)Nc1cncc(C(=O)O)c1N`, the negative logarithm of the EC50 (pEC50) is 2.00.

For the compound `CC(C)C[C@H](NC(=O)[C@@H](NC(=O)OC(C)(C)C)C1CCCCC1)C(=O)NC(C)(C)CC(=O)Nc1cncc(C(=O)O)c1N`, the pEC50 was 2.43. The same measure for `CC[C@H](C)[C@H](NC(=O)[C@@H](NC(=O)OC(C)(C)C)C1CCCCC1)C(=O)NC(C)(C)CC(=O)Nc1cncc(C(=O)O)c1N`: 2.48.

For the compound `CC(C)C[C@H](NC(=O)[C@@H](N)C1CCCCC1)C(=O)NC(C)(C)CC(=O)Nc1cncc(C(=O)O)c1N`, the negative logarithm of the EC50 (pEC50) was 2.25.

As to `CC[C@H](C)[C@H](NC(=O)[C@@H](N)C1CCCCC1)C(=O)NC(C)(C)CC(=O)Nc1cncc(C(=O)O)c1N`, the pEC50 was 2.25. The same measure for `CC(C)(CC(=O)Nc1cncc(C(=O)O)c1N)NC(=O)[C@@H](NC(=O)[C@@H](N)C1CCCCC1)C1CCCCC1`: 2.60.
